EC50 data for 45 compounds are collected here from patent US8916702B2 (priority 2012, dated 2014).

Where two headings read alike, the source gives them in different places.

This experiment relates to HCV pseudoparticles (genotype 1a HCV E1 and E2 envelope, H77C isolate). The experiment can be described thus: microbe, parasite or virus in culture. In kind it is cell-based. The note with it: Hepatitis C virus.
Where [1] appears, read: Huh-7, 48 h, read-out: Activity (EC50 class), HCV pseudoparticle infection of Huh7 cells, luciferase 2 days after infection, EC50 expressed as class A/B.
The mark [2] stands for this setting: Huh-7, read-out: Activity (EC50 class), HCV pseudoparticles (genotype 1a, H77C) in Huh7 cells, EC50 expressed as class A/B.
Setting [3] is: Huh-7, 48 h, read-out: Activity (EC50 class), HCV pseudoparticles, Huh7 cells, luciferase 2 days after infection, average of duplicates.
Where [4] appears, read: Huh-7, 48 h, HCV pseudoparticle infection of Huh7 cells, luciferase 2 days after infection, average of duplicates.
Setting [5] is: Huh-7, 48 h, HCV pseudoparticles (genotype 1a, H77C) in Huh7 cells, average of duplicate, luciferase 2 days after infection.

`C[C@@H]1[C@H]2C[C@H](C[C@H]1NC(=O)C(=O)NC[C@H](NC(=O)c1ccc(Nc3nc(NC4(c5ccc(Cl)cc5)CC4)nc(OCC(F)(F)F)n3)cc1)C(=O)O)C2(C)C` [Compound 1105]: under setting [1], the EC50 lay within 0.01 to 10 nM. Take `O=C(NCC1(CNC(=O)c2ccc(Nc3nc(NC4(c5ccc(Cl)cc5)CC4)nc(OCC(F)(F)F)n3)cc2)CC1)C(=O)Nc1ccc(F)cc1` [Compound 1566]: under setting [1], the EC50 fell in the range of 0.01 to 10 nM. As to `COC(=O)[C@@H](CCNC(=O)C(=O)Nc1cccc(C)c1)NC(=O)c1ccc(Nc2nc(NC3(c4ccc(Cl)cc4)CC3)nc(OCC(F)(F)F)n2)cc1` [Compound 3572], the EC50 under setting [2] is 0.01 to 10 nM.

`CC(C)(CNC(=O)C(=O)Nc1ccc2cn[nH]c2c1)CNC(=O)c1ccc(Nc2nc(NC3(c4ccc(Cl)cc4)CC3)nc(OCC(F)(F)F)n2)cc1` [Compound 3022]: under setting [2], the EC50 lay in the range of 0.01 to 10 nM. With `CCC(CC)CNC(=O)C(=O)NC[C@H](NC(=O)c1ccc(Nc2nc(NC3(c4ccc(Cl)cc4)CC3)nc(OCC(F)(F)F)n2)cc1)C(=O)OC` [Compound 1454], the EC50 under setting [1] is 0.01 to 10 nM.

On to `CC(C)(CNC(=O)C(=O)Nc1ccc(C#N)cc1)CNC(=O)c1ccc(Nc2nc(NC3(c4ccc(Cl)cc4)CC3)nc(OCc3ccc(OC(F)(F)F)cc3)n2)cc1` [Compound 3852], for which the EC50 under setting [3] was in the range of 0.01 to 10 nM. For the compound `NC(=O)c1cccc(NC(=O)C(=O)NCC[C@H](NC(=O)c2ccc(Nc3nc(NC4(c5ccc(Cl)cc5)CC4)nc(OCC(F)(F)F)n3)cc2)C(=O)O)c1` [Compound 3615], under setting [3], the EC50 was in the range of 0.01 to 10 nM.

As for `COC(=O)[C@H](CCNC(=O)C(=O)Nc1ccc(C(N)=O)cc1)NC(=O)c1ccc(Nc2nc(NC3(c4ccc(Cl)cc4)CC3)nc(OCC(F)(F)F)n2)cc1` [Compound 3116], under setting [2], the EC50 lay within 0.01 to 10 nM.

Turning to `COC(=O)[C@H](CCNC(=O)C(=O)Nc1ccc(OC)nc1)NC(=O)c1ccc(Nc2nc(NC3(c4ccc(Cl)cc4)CC3)nc(OCC(F)(F)F)n2)cc1` [Compound 1218], the EC50 under setting [1] lay in the range of 0.01 to 10 nM. Still for that read-out and setting: under `Cn1ccc(NC(=O)C(=O)NC[C@H](NC(=O)c2ccc(Nc3nc(NC4(c5ccc(Cl)cc5)CC4)nc(OCC(F)(F)F)n3)cc2)C(=O)O)n1` [Compound 1351] stands 0.01 to 10 nM. With `CC(C)CNC(=O)C(=O)NCC(O)CNC(=O)c1ccc(Nc2nc(NC3(c4ccc(Cl)cc4)CC3)nc(OCC(F)(F)F)n2)cc1` (stereo not shown) [Compound 3467], the EC50 under setting [2] was 0.01 to 10 nM. On to `COC(=O)[C@H](CCNC(=O)C(=O)Nc1cccc(O)c1)NC(=O)c1ccc(Nc2nc(NC3(c4ccc(Cl)cc4)CC3)nc(OCC(F)(F)F)n2)cc1` [Compound 1521], for which, under setting [1], the EC50 fell in the range of 0.01 to 10 nM. Still for that read-out and setting: in the case of `COC(=O)[C@H](CCNC(=O)C(=O)NC1CCNC(=O)C1)NC(=O)c1ccc(Nc2nc(NC3(c4ccc(Cl)cc4)CC3)nc(OCC(F)(F)F)n2)cc1` (stereo partly shown) [Compound 1072] it was 0.01 to 10 nM. With `COC(=O)/C(CCNC(=O)C(=O)Nc1ccc(N)nc1)=N\C(=O)c1ccc(Nc2nc(NC3(c4ccc(Cl)cc4)CC3)nc(OCC(F)(F)F)n2)cc1` [Compound 3587], under setting [2], the half-maximal effective concentration (EC50) fell in the range of 0.01 to 10 nM. For the compound `O=C(Nc1ccc(C(=O)O)cc1)C(=O)NC1CCCC1CNC(=O)c1ccc(Nc2nc(NC3(c4ccc(Cl)cc4)CC3)nc(OCC(F)(F)F)n2)cc1` (stereo not shown) [Compound 1464], the EC50 was 0.48 nM under setting [4] and 0.01 to 10 nM under setting [1].

For the compound `CCOC(=O)/C=C/c1cccc(NC(=O)C(=O)NCC(C)(C)CNC(=O)c2ccc(Nc3nc(NC4(c5ccc(Cl)cc5)CC4)nc(OCC(F)(F)F)n3)cc2)c1` [Compound 3407], the EC50 under setting [2] fell in the range of 0.01 to 10 nM. On to `Cc1nccn1Cc1ccc(NC(=O)C(=O)NC[C@H](NC(=O)c2ccc(Nc3nc(NC4(c5ccc(Cl)cc5)CC4)nc(OCC(F)(F)F)n3)cc2)C(=O)O)cc1` [Compound 3287], for which the EC50 under setting [2] lay in the range of 0.01 to 10 nM. `CS(=O)(=O)c1cccc(NC(=O)C(=O)NC[C@H](NC(=O)c2ccc(Nc3nc(NC4(c5ccc(Cl)cc5)CC4)nc(OCC(F)(F)F)n3)cc2)C(=O)O)c1` [Compound 3763]: the EC50 under setting [3] is 0.01 to 10 nM. On the same count and under the same terms, in the case of `O=C(NC[C@H](NC(=O)c1ccc(Nc2nc(NC3(c4ccc(Cl)cc4)CC3)nc(OCC(F)(F)F)n2)cc1)C(=O)Cl)C(=O)Nc1cccc(-c2cccnc2)c1` [Compound 3783] it was 0.01 to 10 nM. For `Cc1cc(C)nc(N(C)c2ccc(NC(=O)C(=O)NCC[C@H](NC(=O)c3ccc(Nc4nc(NC5(c6ccc(Cl)cc6)CC5)nc(OCC(F)(F)F)n4)cc3)C(=O)O)cc2)n1` [Compound 3234], the EC50 under setting [5] stood at 0.24 nM and the EC50 under setting [2] fell in the range of 0.01 to 10 nM. With `COC(=O)[C@H](CCNC(=O)C(=O)NCCc1ccccc1F)NC(=O)c1ccc(Nc2nc(NC3(c4ccc(Cl)cc4)CC3)nc(OCC(F)(F)F)n2)cc1` [Compound 1313], under setting [1], the EC50 was 0.01 to 10 nM. In the case of `Cc1cc(NC(=O)C(=O)NCC(O)CNC(=O)c2ccc(Nc3nc(NC4(c5ccc(Cl)cc5)CC4)nc(OCC(F)(F)F)n3)cc2)no1` (stereo not shown) [Compound 3364], the EC50 under setting [2] was 0.01 to 10 nM. The same measure, in the same setting: in the case of `O=C(NCCCNC(=O)c1ccc(Nc2nc(NC3(c4ccc(Cl)cc4)CC3)nc(OCC(F)(F)F)n2)cc1)C(=O)NCc1ccc(F)cc1` [Compound 3357] it was 0.01 to 10 nM. With `COC(=O)[C@H](CCNC(=O)C(=O)NC1CCC(O)CC1)NC(=O)c1ccc(Nc2nc(NC3(c4ccc(Cl)cc4)CC3)nc(OCC(F)(F)F)n2)cc1` (stereo partly shown) [Compound 1073], the EC50 under setting [1] fell in the range of 0.01 to 10 nM.

`COC(=O)[C@H](CNC(=O)C(=O)Nc1ccc(Cc2ccccc2)cc1)NC(=O)c1ccc(Nc2nc(NC3(c4ccc(Cl)cc4)CC3)nc(OCC(F)(F)F)n2)cc1` [Compound 3091]: the EC50 is, setting by setting: under setting [5], 2.85 nM; under setting [2], 0.01 to 10 nM.

As for `CCC(CC)NC(=O)C(=O)NC[C@@H](NC(=O)c1ccc(Nc2nc(NC3(c4ccc(Cl)cc4)CC3)nc(OCC(F)(F)F)n2)cc1)C(=O)OC` [Compound 1063], under setting [1], the concentration for a half-maximal effect (EC50) lay in the range of 0.01 to 10 nM. For `COC(=O)[C@H](CCNC(=O)C(=O)N[C@H]1C[C@H]1c1ccccc1)NC(=O)c1ccc(Nc2nc(NC3(c4ccc(Cl)cc4)CC3)nc(OCC(F)(F)F)n2)cc1` [Compound 1317], under setting [1], the EC50 is 0.01 to 10 nM. On to `COC(=O)[C@H](CNC(=O)C(=O)Nc1ccc(-n2cncn2)cc1)NC(=O)c1ccc(Nc2nc(NC3(c4ccc(Cl)cc4)CC3)nc(OCC(F)(F)F)n2)cc1` [Compound 3101], for which the EC50 under setting [2] fell in the range of 0.01 to 10 nM. As for `CC(C)(CNC(=O)C(=O)Nc1ccc(C#N)cc1)CNC(=O)c1ccc(Nc2nc(NC3(c4ccc(Cl)cc4)CC3)nc(OCC(F)(F)F)n2)cc1F` [Compound 3516], under setting [2], the EC50 is 0.01 to 10 nM.

For the compound `COc1cccc(CNC(=O)C(=O)NCC(C)(C)CNC(=O)c2ccc(Nc3nc(NC4(c5ccc(Cl)cc5)CC4)nc(OCC(F)(F)F)n3)cc2)c1` [Compound 3012], the EC50 under setting [2] fell in the range of 0.01 to 10 nM. As for `O=C(NCC[C@H](NC(=O)c1ccc(Nc2nc(NC3(c4ccc(Cl)cc4)CC3)nc(OCC(F)(F)F)n2)cc1)C(=O)O)C(=O)Nc1cccc(-c2ccccc2)c1` [Compound 1523], the EC50 runs as follows: under setting [4], 0.26 nM; under setting [1], 0.01 to 10 nM. On to `COC(=O)C(CNC(=O)C(=O)NC1CCN(C(=O)OC(C)(C)C)CC1)NC(=O)c1ccc(Nc2nc(NC3(c4ccc(Cl)cc4)CC3)nc(OCC(F)(F)F)n2)cc1` (stereo not shown) [Compound 1049], for which the EC50 under setting [1] was 0.01 to 10 nM. `O=C(NC/C(=N/C(=O)c1ccc(Nc2nc(NC3(c4ccc(Cl)cc4)CC3)nc(OCC(F)(F)F)n2)cc1)C(=O)O)C(=O)Nc1ccc(-c2ccccc2)cc1` [Compound 3151]: the EC50 under setting [2] fell in the range of 0.01 to 10 nM. As to `CC(C)(CNC(=O)C(=O)Nc1cccc(C(=O)c2ccccc2)c1)CNC(=O)c1ccc(Nc2nc(NC3(c4ccc(Cl)cc4)CC3)nc(OCC(F)(F)F)n2)cc1` [Compound 3078], under setting [2], the EC50 lay within 0.01 to 10 nM. The same measure, in the same setting: under `COC(=O)[C@H](CCNC(=O)C(=O)Nc1ccc(-c2csc(C)n2)cc1)NC(=O)c1ccc(Nc2nc(NC3(c4ccc(Cl)cc4)CC3)nc(OCC(F)(F)F)n2)cc1` [Compound 3307] stands 0.01 to 10 nM; under `CC(C)(CNC(=O)C(=O)Nc1ccc2nccnc2c1)CNC(=O)c1ccc(Nc2nc(NC3(c4ccc(Cl)cc4)CC3)nc(OCC(F)(F)F)n2)cc1` [Compound 3026], 0.01 to 10 nM. Turning to `O=C(NC[C@H](NC(=O)c1ccc(Nc2nc(NC3(c4ccc(Cl)cc4)CC3)nc(OCC(F)(F)F)n2)cc1)C(=O)O)C(=O)Nc1ccc(-c2ccno2)cc1` [Compound 3282], under setting [2], the EC50 is 0.01 to 10 nM.

As to `Cn1ccnc1NC(=O)C(=O)NC[C@H](NC(=O)c1ccc(Nc2nc(NC3(c4ccc(Cl)cc4)CC3)nc(OCC(F)(F)F)n2)cc1)C(=O)O` [Compound 1352], the EC50 under setting [1] was 0.01 to 10 nM. The same measure, in the same setting: in the case of `COC(=O)[C@H](CCNC(=O)C(=O)NC[C@H]1C[C@H]1c1ccc(C)cc1)NC(=O)c1ccc(Nc2nc(NC3(c4ccc(Cl)cc4)CC3)nc(OCC(F)(F)F)n2)cc1` [Compound 1393] it was 0.01 to 10 nM; in that of `COc1cccc(-c2ccc(NC(=O)C(=O)NCC(C)(C)CNC(=O)c3ccc(Nc4nc(NC5(c6ccc(Cl)cc6)CC5)nc(OCC(F)(F)F)n4)cc3)cc2)c1` [Compound 1581], 0.01 to 10 nM. As for `O=C(NCC[C@H](NC(=O)c1ccc(Nc2nc(NC3(c4ccc(Cl)cc4)CC3)nc(OCC(F)(F)F)n2)cc1)C(=O)O)C(=O)Nc1ccc(N2CCCC2)nc1` [Compound 3645], under setting [3], the EC50 is 0.01 to 10 nM. For `COCCNC(=O)C(=O)NC[C@H](NC(=O)c1ccc(Nc2nc(NC3(c4ccc(Cl)cc4)CC3)nc(OCC(F)(F)F)n2)cc1)C(=O)O` [Compound 1046], under setting [1], the EC50 fell in the range of 0.01 to 10 nM. Turning to `CN(CCCN(C)C(=O)c1ccc(Nc2nc(NC3(c4ccc(Cl)cc4)CC3)nc(OCC(F)(F)F)n2)cc1)C(=O)C(=O)Nc1ccc(F)cc1` [Compound 3412], the EC50 under setting [2] was in the range of 0.01 to 10 nM.

Regarding `CC(CNC(=O)C(N)=O)CNC(=O)c1ccc(Nc2nc(NC3(c4ccc(Cl)cc4)CC3)nc(OCC(F)(F)F)n2)cc1` (stereo not shown) [Compound 3345], under setting [2], the EC50 fell in the range of 0.01 to 10 nM.

Regarding `COC(=O)[C@H](CCNC(=O)C(=O)NCc1ccc(OC)cc1)NC(=O)c1ccc(Nc2nc(NC3(c4ccc(Cl)cc4)CC3)nc(OCC(F)(F)F)n2)cc1` [Compound 1146], the EC50 under setting [1] was 0.01 to 10 nM.

The term EC50 denotes the concentration that produces a half-maximal response.
